Source: patent US10414811B2, “Protease-resistant lipidated GLP-1 analogs” (MEDIMMUNE LIMITED, priority 2015, dated 2019)
Read-outs that look alike come from different tables or passages of the source.

How the values were obtained:
Format in all cases: cell-based
[1] = biological target: T1, human GLP-1 receptor (GLP-1R) (Homo sapiens, UniProt P43220); assay: cAMP assay, human GLP-1R cells
T1 construct: expressed in transfected cells
Procedure, shortened: (§1)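 Peptide-stimulated cAMP measured by two-step HTRF after a 30 min room-temperature incubation with receptor-expressing cells (hGLP-1R, hGIPR at 1×10^5 cells/ml; hGCGR at 2×10^5 cells/ml). Duplicate dilutions; EC50 from 4-parameter logistic fit of % Delta F.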

[2] = biological target: T2, human glucose-dependent insulinotropic peptide receptor (GIPR) (Homo sapiens, UniProt P48546); assay: cAMP assay, human GIPR cells
T2 construct: expressed in transfected cells
T2 sequence (P48546 22-466): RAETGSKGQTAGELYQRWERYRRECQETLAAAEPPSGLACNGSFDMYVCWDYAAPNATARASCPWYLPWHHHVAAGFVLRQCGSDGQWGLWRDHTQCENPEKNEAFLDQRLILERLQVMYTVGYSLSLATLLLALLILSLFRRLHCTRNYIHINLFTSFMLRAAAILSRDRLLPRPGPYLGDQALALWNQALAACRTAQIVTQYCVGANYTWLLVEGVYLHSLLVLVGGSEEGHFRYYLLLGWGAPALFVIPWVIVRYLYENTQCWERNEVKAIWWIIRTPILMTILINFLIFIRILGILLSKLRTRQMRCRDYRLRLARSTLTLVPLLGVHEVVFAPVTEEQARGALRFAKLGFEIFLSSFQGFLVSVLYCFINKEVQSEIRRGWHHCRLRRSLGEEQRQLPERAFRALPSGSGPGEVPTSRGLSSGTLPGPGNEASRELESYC
Procedure, shortened: as §1

[3] = biological target: T3, human glucagon receptor (GCGR) (Homo sapiens, UniProt P47871); assay: cAMP assay, human GCGR cells
T3 construct: expressed in transfected cells
T3 sequence (P47871 26-477): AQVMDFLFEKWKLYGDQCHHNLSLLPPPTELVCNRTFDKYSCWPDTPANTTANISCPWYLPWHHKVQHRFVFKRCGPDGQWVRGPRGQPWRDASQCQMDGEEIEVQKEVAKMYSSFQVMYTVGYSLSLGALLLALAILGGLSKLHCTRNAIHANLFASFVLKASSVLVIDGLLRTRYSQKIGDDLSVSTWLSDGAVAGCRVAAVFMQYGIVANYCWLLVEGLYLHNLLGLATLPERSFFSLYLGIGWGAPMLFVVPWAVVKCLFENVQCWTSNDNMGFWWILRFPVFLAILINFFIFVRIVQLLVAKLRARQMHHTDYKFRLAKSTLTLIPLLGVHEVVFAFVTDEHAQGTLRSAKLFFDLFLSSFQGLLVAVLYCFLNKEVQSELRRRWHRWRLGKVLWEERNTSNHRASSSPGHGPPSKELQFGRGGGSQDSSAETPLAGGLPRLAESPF
Procedure, shortened: as §1

[4] = cAMP assay, first determination (n1), read-out: Primary assay EC50 GLP-1R n1
[5] = cAMP assay, second determination (n2), read-out: Primary assay EC50 GLP-1R n2
[6] = mean of n1 and n2, read-out: Mean pM GLP-1R
[7] = cAMP assay, first determination (n1), read-out: Primary assay EC50 GIP-R (n1)
[8] = cAMP assay, second determination (n2), read-out: Primary assay EC50 GIP-R (n2)
[9] = cAMP assay, first determination (n1), read-out: Primary assay EC50 Gluc-R (n1)
[10] = cAMP assay, second determination (n2), read-out: Primary assay EC50 Gluc-R (n2)

T1 sequence (P43220 24-463): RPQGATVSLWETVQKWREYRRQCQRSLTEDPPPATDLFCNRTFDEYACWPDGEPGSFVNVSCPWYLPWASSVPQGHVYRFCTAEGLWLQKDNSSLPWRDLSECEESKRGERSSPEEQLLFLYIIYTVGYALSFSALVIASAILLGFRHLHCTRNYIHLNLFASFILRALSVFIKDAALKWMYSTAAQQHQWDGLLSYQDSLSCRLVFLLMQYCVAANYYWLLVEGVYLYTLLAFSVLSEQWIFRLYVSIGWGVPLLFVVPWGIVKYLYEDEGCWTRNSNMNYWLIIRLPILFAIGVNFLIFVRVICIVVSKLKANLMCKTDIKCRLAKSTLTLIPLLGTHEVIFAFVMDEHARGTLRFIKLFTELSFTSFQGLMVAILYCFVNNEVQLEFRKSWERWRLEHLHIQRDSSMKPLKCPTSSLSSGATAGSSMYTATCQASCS

Row | EC50 [1, 4] [pM] | EC50 [1, 5] [pM] | EC50 [1, 6] [pM] | EC50 [2, 7] [nM] | EC50 [2, 8] [nM] | EC50 [3, 9] [nM] | EC50 [3, 10] [nM] | EC50 ([1]; first run (n1), cAMP activity, read-out: Primary assay EC50 GLP-1R n1) [pM] | EC50 ([1]; second run (n2), cAMP activity, read-out: Primary assay EC50 GLP-1R n2) [pM] | EC50 ([2]; first run (n1), cAMP activity, read-out: Primary assay EC50 GIP-R) [nM] | EC50 ([2]; second run (n2), cAMP activity, read-out: Primary assay EC50 GIP-R) [nM] | EC50 ([3]; first run (n1), cAMP activity of substituted and mono-lipidated peptides, read-out: Primary assay EC50 Gluc-R) [nM] | EC50 ([3]; second run (n2), cAMP activity, read-out: Primary assay EC50 Gluc-R) [nM] | SMILES
1 | 32 | 14 | 23.2 | ≥ 27 | ≥ 27 | ≥ 27 | ≥ 27 |  |  |  |  |  |  | CCCCCCCCCCCCCCCCCC(=O)N[C@@H](CCC(=O)N[C@@H](CCC(=O)NCCCC[C@H](NC(=O)[C@H](C)NC(=O)[C@H](C)NC(=O)[C@H](CCC(=O)O)NC(=O)CNC(=O)[C@H](CCC(=O)O)NC(=O)[C@H](CC(C)C)NC(=O)[C@](C)(Cc1ccccc1)NC(=O)[C@H](CO)NC(=O)[C@](C)(CO)NC(=O)[C@@H](NC(=O)[C@H](CC(=O)O)NC(=O)[C@H](CO)NC(=O)[C@@H](NC(=O)[C@](C)(Cc1ccccc1)NC(=O)[C@H](CO)NC(=O)CNC(=O)[C@H](CCC(=O)O)NC(=O)C(C)(C)NC(=O)[C@@H](N)Cc1c[nH]cn1)[C@@H](C)O)C(C)C)C(=O)N[C@@H](CCC(=O)O)C(=O)N[C@@](C)(Cc1ccccc1)C(=O)N[C@H](C(=O)N[C@@H](C)C(=O)N[C@@](C)(Cc1ccccc1)C(=O)N[C@H](C(=O)N[C@H](C(=O)N[C@@](C)(CCCCN)C(=O)NCC(=O)NCC(N)=O)C(C)C)C(C)C)[C@@H](C)CC)C(=O)O)C(=O)O [compound 147]
2 |  |  | 107 |  |  |  |  | 170 | 46 | ≥ 27 | ≥ 27 | ≥ 27 | ≥ 27 | CC[C@H](C)[C@H](NC(=O)[C@](C)(Cc1ccccc1)NC(=O)[C@H](CCC(=O)O)NC(=O)[C@](C)(CCCCN)NC(=O)[C@H](C)NC(=O)[C@H](C)NC(=O)[C@H](CCC(=O)O)NC(=O)CNC(=O)[C@H](CCC(=O)O)NC(=O)[C@H](CC(C)C)NC(=O)[C@](C)(Cc1ccccc1)NC(=O)[C@H](CO)NC(=O)[C@](C)(CO)NC(=O)[C@@H](NC(=O)[C@H](CC(=O)O)NC(=O)[C@H](CO)NC(=O)[C@@H](NC(=O)[C@](C)(Cc1ccccc1)NC(=O)[C@H](CO)NC(=O)CNC(=O)[C@H](CCC(=O)O)NC(=O)C(C)(C)NC(=O)[C@@H](N)Cc1c[nH]cn1)[C@@H](C)O)C(C)C)C(=O)N[C@@H](C)C(=O)N[C@@](C)(Cc1ccccc1)C(=O)N[C@H](C(=O)N[C@H](C(=O)N[C@@H](CCCCNC(=O)CCCCCNC(=O)CCCCCNC(=O)CCCCCCCCCCCCCCCCC(=O)O)C(=O)NCC(=O)NCC(N)=O)C(C)C)C(C)C [compound 195]
3 | 7.5 | 5.5 | 6.5 | ≥ 81 | ≥ 81 | ≥ 81 | ≥ 81 |  |  |  |  |  |  | CCCCCCCCCCCCCCCC(=O)N[C@@H](CCC(=O)NCCCC[C@H](NC(=O)[C@H](CCCNC(=N)N)NC(=O)CNC(=O)[C@H](CCCCN)NC(=O)[C@@H](NC(=O)[C@H](CC(C)C)NC(=O)[C@H](Cc1c[nH]c2ccccc12)NC(=O)[C@H](C)NC(=O)[C@@H](NC(=O)[C@H](Cc1ccccc1)NC(=O)[C@H](CCC(=O)O)NC(=O)[C@H](CCCCN)NC(=O)[C@H](C)NC(=O)[C@H](C)NC(=O)[C@H](CCC(N)=O)NC(=O)CNC(=O)[C@H](CCC(=O)O)NC(=O)[C@H](CC(C)C)NC(=O)[C@H](Cc1ccc(O)cc1)NC(=O)[C@H](CO)NC(=O)[C@H](CO)NC(=O)[C@@H](NC(=O)[C@H](CC(=O)O)NC(=O)[C@H](CO)NC(=O)[C@@H](NC(=O)[C@H](Cc1ccccc1)NC(=O)[C@@H](NC(=O)CNC(=O)[C@H](CCC(=O)O)NC(=O)C(C)(C)NC(=O)[C@@H](N)Cc1c[nH]cn1)[C@@H](C)O)[C@@H](C)O)C(C)C)[C@@H](C)CC)C(C)C)C(N)=O)C(=O)O [compound 5]
